# Patent US12213969B2, “2-spiro-5- and 6-hydroxamic acid indanes as HDAC inhibitors” (Valo Health, Inc., priority 2016, dated 2025)
# Target: T1, Full length human recombinant HDAC6 protein (Homo sapiens, UniProt Q9UBN7)
# T1 construct: made in house
# T1 sequence (Q9UBN7 1-1215): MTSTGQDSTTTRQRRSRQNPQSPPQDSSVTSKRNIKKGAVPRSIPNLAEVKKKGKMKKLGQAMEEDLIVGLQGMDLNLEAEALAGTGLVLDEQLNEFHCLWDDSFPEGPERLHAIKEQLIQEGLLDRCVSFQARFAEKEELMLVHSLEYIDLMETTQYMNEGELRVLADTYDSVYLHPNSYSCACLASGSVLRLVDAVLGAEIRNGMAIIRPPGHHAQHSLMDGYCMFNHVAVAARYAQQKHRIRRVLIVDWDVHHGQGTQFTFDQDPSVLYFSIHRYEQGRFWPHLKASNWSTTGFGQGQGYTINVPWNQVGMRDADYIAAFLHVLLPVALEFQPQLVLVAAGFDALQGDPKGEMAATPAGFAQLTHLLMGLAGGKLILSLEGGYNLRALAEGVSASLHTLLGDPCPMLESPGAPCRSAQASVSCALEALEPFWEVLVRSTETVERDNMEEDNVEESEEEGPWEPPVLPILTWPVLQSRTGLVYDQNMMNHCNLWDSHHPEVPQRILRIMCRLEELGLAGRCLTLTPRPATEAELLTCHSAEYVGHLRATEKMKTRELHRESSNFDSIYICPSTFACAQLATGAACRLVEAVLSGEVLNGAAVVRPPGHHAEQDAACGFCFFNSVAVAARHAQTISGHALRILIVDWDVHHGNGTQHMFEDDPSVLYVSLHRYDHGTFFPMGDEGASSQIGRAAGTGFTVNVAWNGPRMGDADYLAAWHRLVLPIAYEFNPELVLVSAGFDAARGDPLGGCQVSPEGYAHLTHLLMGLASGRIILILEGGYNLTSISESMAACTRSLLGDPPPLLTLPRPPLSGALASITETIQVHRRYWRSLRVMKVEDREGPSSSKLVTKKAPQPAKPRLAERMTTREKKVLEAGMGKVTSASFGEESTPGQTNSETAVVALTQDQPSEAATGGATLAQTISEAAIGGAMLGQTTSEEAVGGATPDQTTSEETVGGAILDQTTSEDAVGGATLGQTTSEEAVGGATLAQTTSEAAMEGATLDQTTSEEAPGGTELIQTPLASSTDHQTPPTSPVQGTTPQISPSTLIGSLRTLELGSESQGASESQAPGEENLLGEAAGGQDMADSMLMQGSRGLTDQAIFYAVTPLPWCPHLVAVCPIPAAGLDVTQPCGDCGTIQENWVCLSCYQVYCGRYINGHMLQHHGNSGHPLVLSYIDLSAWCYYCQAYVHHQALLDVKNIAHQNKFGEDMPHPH
# Assay: In vitro histone deacetylase assay: enzymatic HDAC6 electrophoretic mobility shift assay
# Type: biochemical
# Conditions: peptide substrate RHKK(Ac)-NH2 2 μM, enzyme 1 nM, 25° C., 12 concentrations; read-out: HDAC6 activity range (IC50)
# Protocol: The enzymatic HDAC6 assay was performed using electrophoretic mobility shift assay. Full length human recombinant HDAC6 protein was expressed in baculoviral system and purified by affinity chromatography. The enzymatic reactions were assembled in 384 well plates in a total volume of 25 μL in a reaction buffer composing: 100 mM HEPES, pH 7.5, 25 mM KCl, 0.1% bovine serum albumin, 0.01% Triton X-100, 1% DMSO (from compounds) 2 μM of the fluorescently labeled peptide substrate and enzyme. The enzyme was added at a final concentration of 1 nM. The peptide substrate RHKK(Ac)-NH2 was used. The compounds were tested at 12 concentrations spaced by 3× dilution intervals. Negative control samples (0%-inhibition in the absence of inhibitor) and positive control samples (100%-inhibition) were assembled in replicates of four in each assay plate. The reactions were incubated at 25° C. and quenched by the addition of 45 μL of termination buffer (100 mM HEPES, pH 7.5, 0.01% Triton X-100, 0.05% SDS).
# The terminated assay plates were analyzed on LabChip® 3000 microfluidic electrophoresis instrument (Perkin Elmer/Caliper Life Sciences). The fluorescence intensity of the electrophoretically separated de-acetylated product and substrate peptide was measured. Activity in each sample was determined as the product to sum ratio (PSR): P/(S+P), where P is the peak height of the product peptide and S is the peak height of the substrate peptide. Percent inhibition (Pinh) is determined using the following equation:
# Pinh=(PSR0%−PSRinh)/(PSR0%−PSR100%)*100, where PSRinh is the product sum ratio in the presence of inhibitor, PSR0% is the average product sum ration in the absence of inhibitor and PSR100% is the average product sum ratio in 100%-inhibition control samples. The IC50 values of inhibitors were determined by fitting the %-inhibition curves with 4 parameter dose-response model using XLfit 4 software.
# As set forth in Table-7, below, IC50 values are defined as follows: IC50≤0.01 μM (+++); IC50>0.01 μM and ≤0.05 μM (++); IC50>0.05 μM (+).
row,SMILES,IC50 [nM]
1,"CC(C)CN1CC[C@@]2(Cc3ccc(C(=O)NO)cc3C2)C1=O [Compound I-8, (S)—N-hydroxy-1′-isobutyl-2′-oxo-1,3-dihydrospiro[indene-2,3′-pyrrolidine]-5-carboxamide]",10 to 50
2,"O=C(NO)c1ccc2c(c1)C[C@]1(CCN(Cc3ccccc3)C1=O)C2 [Compound I-12, (S)-1′-benzyl-N-hydroxy-2′-oxo-1,3-dihydrospiro[indene-2,3′-pyrrolidine]-5-carboxamide]",10 to 50
3,"O=C(NO)c1ccc2c(c1)C[C@@]1(CCCN(Cc3ccccc3)C1=O)C2 [Compound I-34, (R)-1′-benzyl-N-hydroxy-2′-oxo-1,3-dihydrospiro[indene-2,3′-piperidine]-5-carboxamide]",≤ 10
4,"CC(=O)N1CC[C@@]2(Cc3ccc(C(=O)NO)cc3C2)C1 [Compound I-29, (S)-1′-acetyl-N-hydroxy-1,3-dihydrospiro[indene-2,3′-pyrrolidine]-5-carboxamide]",10 to 50
5,"CC(C)N1CC[C@]2(Cc3ccc(C(=O)NO)cc3C2)C1=O [Compound I-3, (R)—N-hydroxy-1′-isopropyl-2′-oxo-1,3-dihydrospiro[indene-2,3′-pyrrolidine]-5-carboxamide]",10 to 50
6,"O=C(NO)c1ccc2c(c1)C[C@@]1(CCN(c3ccc(F)cc3)C1=O)C2 [Compound I-15, (R)-1′-(4-fluorophenyl)-N-hydroxy-2′-oxo-1,3-dihydrospiro[indene-2,3′-pyrrolidine]-5-carboxamide]",10 to 50
7,"O=C(NO)c1ccc2c(c1)C[C@@]1(CCN(Cc3ccccc3)C1)C2 [Compound I-26, (R)-1′-benzyl-N-hydroxy-1,3-dihydrospiro[indene-2,3′-pyrrolidine]-5-carboxamide]",10 to 50
8,"O=C(NO)c1ccc2c(c1)C[C@]1(CCN(c3ccc(F)cc3)C1=O)C2 [Compound I-16, (S)-1′-(4-fluorophenyl)-N-hydroxy-2′-oxo-1,3-dihydrospiro[indene-2,3′-pyrrolidine]-5-carboxamide]",10 to 50
9,"O=C(NO)c1ccc2c(c1)C[C@@]1(CCN(c3ccccc3)C1=O)C2 [Compound I-13, (R)—N-hydroxy-2′-oxo-1′-phenyl-1,3-dihydrospiro[indene-2,3′-pyrrolidine]-5-carboxamide]",10 to 50
10,"O=C(NO)c1ccc2c(c1)C[C@]1(CCN(Cc3ccccc3)C1)C2 [Compound I-27, (S)-1′-benzyl-N-hydroxy-1,3-dihydrospiro[indene-2,3′-pyrrolidine]-5-carboxamide]",10 to 50
11,"Cc1ccccc1CN1CC[C@@]2(Cc3ccc(C(=O)NO)cc3C2)C1=O [Compound I-10, (S)—N-hydroxy-1′-(2-methylbenzyl)-2′-oxo-1,3-dihydrospiro[indene-2,3′-pyrrolidine]-5-carboxamide]",10 to 50
12,"CN1CC[C@]2(Cc3ccc(C(=O)NO)cc3C2)C1=O [Compound I-1, (R)—N-hydroxy-1′-methyl-2′-oxo-1,3-dihydrospiro[indene-2,3′-pyrrolidine]-5-carboxamide]",10 to 50
13,"O=C(NO)c1ccc2c(c1)C[C@@]1(CCN(c3ccccn3)C1=O)C2 [Compound I-19, (R)—N-hydroxy-2′-oxo-1′-(pyridin-2-yl)-1,3-dihydrospiro[indene-2,3′-pyrrolidine]-5-carboxamide]",10 to 50
14,"CC(C)CN1CC[C@]2(Cc3ccc(C(=O)NO)cc3C2)C1=O [Compound I-7, (R)—N-hydroxy-1′-isobutyl-2′-oxo-1,3-dihydrospiro[indene-2,3′-pyrrolidine]-5-carboxamide]",10 to 50
15,"O=C(NO)c1ccc2c(c1)C[C@@]1(CCN(Cc3cccnc3)C1=O)C2 [Compound I-23, (R)—N-hydroxy-2′-oxo-1′-(pyridin-3-ylmethyl)-1,3-dihydrospiro[indene-2,3′-pyrrolidine]-5-carboxamide]",10 to 50
16,"CC(=O)N1CC[C@]2(Cc3ccc(C(=O)NO)cc3C2)C1 [Compound I-28, (R)-1′-acetyl-N-hydroxy-1,3-dihydrospiro[indene-2,3′-pyrrolidine]-5-carboxamide]",10 to 50
17,"CCN1CC[C@@]2(Cc3ccc(C(=O)NO)cc3C2)C1=O [Compound I-6, (S)-1′-ethyl-N-hydroxy-2′-oxo-1,3-dihydrospiro[indene-2,3′-pyrrolidine]-5-carboxamide]",> 50
18,"O=C(NO)c1ccc2c(c1)C[C@]1(CCN(c3ccccc3)C1=O)C2 [Compound I-14, (S)—N-hydroxy-2′-oxo-1′-phenyl-1,3-dihydrospiro[indene-2,3′-pyrrolidine]-5-carboxamide]",10 to 50
19,"CC(C)N1CC[C@@]2(Cc3ccc(C(=O)NO)cc3C2)C1=O [Compound I-4, (S)—N-hydroxy-1′-isopropyl-2′-oxo-1,3-dihydrospiro[indene-2,3′-pyrrolidine]-5-carboxamide]",> 50
20,"O=C(NO)c1ccc2c(c1)C[C@@]1(CCCN(c3ccccc3)C1=O)C2 [Compound I-36, (R)—N-hydroxy-2′-oxo-1′-phenyl-1,3-dihydrospiro[indene-2,3′-piperidine]-5-carboxamide]",≤ 10
21,"CN1CCC[C@@]2(Cc3ccc(C(=O)NO)cc3C2)C1=O [Compound I-33, (S)—N-hydroxy-1′-methyl-2′-oxo-1,3-dihydrospiro[indene-2,3′-piperidine]-5-carboxamide]",10 to 50
22,"CN1CCC[C@]2(Cc3ccc(C(=O)NO)cc3C2)C1=O [Compound I-32, (R)—N-hydroxy-1′-methyl-2′-oxo-1,3-dihydrospiro[indene-2,3′-piperidine]-5-carboxamide]",10 to 50
23,"Cc1ccccc1CN1CC[C@]2(Cc3ccc(C(=O)NO)cc3C2)C1=O [Compound I-9, (R)—N-hydroxy-1′-(2-methylbenzyl)-2′-oxo-1,3-dihydrospiro[indene-2,3′-pyrrolidine]-5-carboxamide]",10 to 50
24,"O=C(NO)c1ccc2c(c1)C[C@]1(CCN(c3cccnc3)C1=O)C2 [Compound I-18, (S)—N-hydroxy-2′-oxo-1′-(pyridin-3-yl)-1,3-dihydrospiro[indene-2,3′-pyrrolidine]-5-carboxamide]",10 to 50
25,"O=C(NO)c1ccc2c(c1)C[C@@]1(CCN(c3cccnc3)C1=O)C2 [Compound I-17, (R)—N-hydroxy-2′-oxo-1′-(pyridin-3-yl)-1,3-dihydrospiro[indene-2,3′-pyrrolidine]-5-carboxamide]",≤ 10
26,"O=C(NO)c1ccc2c(c1)C[C@]1(CCCN(Cc3ccccc3)C1=O)C2 [Compound I-35, (S)-1′-benzyl-N-hydroxy-2′-oxo-1,3-dihydrospiro[indene-2,3′-piperidine]-5-carboxamide]",10 to 50
27,"CN1CC[C@]2(Cc3ccc(C(=O)NO)cc3C2)C1 [Compound I-24, (R)—N-hydroxy-1′-methyl-1,3-dihydrospiro[indene-2,3′-pyrrolidine]-5-carboxamide]",10 to 50
28,"O=C(NO)c1ccc2c(c1)C[C@]1(CCCN(c3ccccc3)C1=O)C2 [Compound I-37, (S)—N-hydroxy-2′-oxo-1′-phenyl-1,3-dihydrospiro[indene-2,3′-piperidine]-5-carboxamide]",10 to 50
